Key:
[1] = tested on: Rattus norvegicus; assay: Dose required for producing 50% block of avoidance responding in rats after peroral administration; assay type: functional
[2] = tested on: Rattus norvegicus; assay: Dose required for producing 20% block of escape responding in rats after peroral administration; assay type: functional

| Compound | ABD50 [1] [mg/kg] | EBD20 [2] [mg/kg] |
| --- | --- | --- |
| CCc1c(C)[nH]c2c1C(=O)[C@@H]1CN(C)CC[C@H]1C2.Cl | >6 |  |
| CCc1c(C)[nH]c2c1C(=O)[C@H]1CN(C)CC[C@@H]1C2.Cl | 0.49 | 3.6 |
| CCc1c(C)[nH]c2c1C(=O)C1CN(C)CCC1C2.Cl (racemic) | 0.72 | 9.8 |
| O=C(CCCN1CCC(O)(c2ccc(Cl)cc2)CC1)c1ccc(F)cc1 [HALOPERIDOL] | 0.35 | 2.7 |
| CCc1c(C)[nH]c2c1C(=O)C(CN1CCOCC1)CC2 (centres undefined) [MOLINDONE] | 3.6 | 17.1 |

From ChEMBL document CHEMBL1121689, “A dopamine receptor model and its application in the design of a new class of rigid pyrrolo[2,3-g]isoquinoline antipsychotics” (1981)
